According to patent publication US10131652B2, “Pyrimidinyloxy benzene derivatives as herbicides” (E. I. DU PONT DE NEMOURS AND COMPANY, priority 2014, dated 2018):
Where two headings read alike, the source gives them in different places.

How the values were obtained:
Assay in all cases: Test D pre-/postemergence plant response
Type in all cases: in vivo
soybean (Glycine max) = settings: Glycine max; for plant injury at 31 g/ha: 31 g ai/ha; for plant injury at 62 g/ha: 62 g ai/ha; for plant injury at 125 g/ha: 125 g ai/ha
Description: (§1) Seeds of plant species selected from blackgrass (Alopecurus myosuroides), Italian ryegrass (Lolium multiflorum), winter wheat (Triticum aestivum), galium (catchweed bedstraw, Galium aparine), corn (Zea mays), large (Lg) crabgrass (Digitaria sanguinalis), giant foxtail (Setaria faberii), johnsongrass (Sorghum halepense), lambsquarters (Chenopodium album), morningglory (Ipomoea coccinea), yellow nutsedge (Cyperus esculentus), pigweed (Amaranthus retroflexus), ragweed (common ragweed, Ambrosia elatior), soybean (Glycine max), bamyardgrass (Echinochloa crus-galli), oilseed rape (Brassica napus), waterhemp (common waterhemp, Amaranthus rudis), and velvetleaf (Abutilon theophrasti) were planted into a blend of loam soil and sand and treated preemergence with test chemicals formulated in a non-phytotoxic solvent mixture which included a surfactant. At the same time, plants selected from these crop and weed species and also kochia (Kochia scoparia), wild oat (Avena fatua), and chickweed (common chickweed, Stellaria media) were planted in pots containing Redi-Earth® planting medium (Scotts Company, 14111 Scottslawn Road, Marysville, Ohio 43041) comprising spaghnum peat moss, vermiculite, wetting agent and starter nutrients and treated with postemergence applications of test chemicals formulated in the same manner. Plants ranged in height from 2 to 18 cm (1- to 4-leaf stage) for postemergence treatments. Treated plants and controls were maintained in a greenhouse for 13 to 15 days, after which time all species were compared to controls and visually evaluated. Plant response ratings, summarized in Table D, are based on a scale of 0 to 100 where 0 is no effect and 100 is complete control. A dash (-) response means no test result.

[1] = tested on: blackgrass (Alopecurus myosuroides); settings: Alopecurus myosuroides; for pest or weed control at 16 g/ha: 16 g ai/ha; for pest or weed control at 31 g/ha: 31 g ai/ha; for pest or weed control at 62 g/ha: 62 g ai/ha; for pest or weed control at 125 g/ha: 125 g ai/ha
Description: as §1

[2] = tested on: oilseed rape (Brassica napus); settings: Brassica napus; for plant injury at 31 g/ha: 31 g ai/ha; for plant injury at 62 g/ha: 62 g ai/ha; for plant injury at 125 g/ha: 125 g ai/ha
Description: as §1

[3] = tested on: johnsongrass (Sorghum halepense); settings: Sorghum halepense; for pest or weed control at 31 g/ha: 31 g ai/ha; for pest or weed control at 62 g/ha: 62 g ai/ha; for pest or weed control at 125 g/ha: 125 g ai/ha
Description: as §1

[4] = tested on: galium (catchweed bedstraw, Galium aparine); settings: Galium; for pest or weed control at 31 g/ha: 31 g ai/ha; for pest or weed control at 62 g/ha: 62 g ai/ha; for pest or weed control at 125 g/ha: 125 g ai/ha
Description: as §1

[5] = tested on: pigweed (Amaranthus retroflexus); settings: Amaranthus retroflexus; for pest or weed control at 31 g/ha: 31 g ai/ha; for pest or weed control at 62 g/ha: 62 g ai/ha; for pest or weed control at 125 g/ha: 125 g ai/ha
Description: as §1

[6] = tested on: barnyardgrass (Echinochloa crus-galli); settings: Echinochloa crus-galli; for pest or weed control at 16 g/ha: 16 g ai/ha; for pest or weed control at 31 g/ha: 31 g ai/ha; for pest or weed control at 62 g/ha: 62 g ai/ha; for pest or weed control at 125 g/ha: 125 g ai/ha
Description: as §1

[7] = tested on: waterhemp (common waterhemp, Amaranthus rudis); settings: Amaranthus tuberculatus; for pest or weed control at 31 g/ha: 31 g ai/ha; for pest or weed control at 62 g/ha: 62 g ai/ha; for pest or weed control at 125 g/ha: 125 g ai/ha
Description: as §1

[8] = tested on: large (Lg) crabgrass (Digitaria sanguinalis); settings: Digitaria sanguinalis; for pest or weed control at 16 g/ha: 16 g ai/ha; for pest or weed control at 31 g/ha: 31 g ai/ha; for pest or weed control at 62 g/ha: 62 g ai/ha; for pest or weed control at 125 g/ha: 125 g ai/ha
Description: as §1

[9] = post-emergence, Postemergence, scale 0 to 100, 0 no effect, 100 complete control, read-out: Plant response rating, Soybean
[10] = pre-emergence, Preemergence, scale 0 to 100 (0 no effect, 100 complete control), read-out: Plant response rating, Soybean
[11] = post-emergence, Postemergence, scale 0 to 100 (0 no effect, 100 complete control), read-out: Blackgrass plant response rating
[12] = post-emergence, Postemergence, scale 0 to 100, 0 no effect, 100 complete control, read-out: Plant response rating, Blackgrass
[13] = pre-emergence, Preemergence, scale 0 to 100 (0 no effect, 100 complete control), read-out: Plant response rating, Blackgrass
[14] = post-emergence, Postemergence, scale 0 to 100, 0 no effect, 100 complete control, read-out: Plant response rating, Oilseed Rape
[15] = pre-emergence, Preemergence, scale 0 to 100 (0 no effect, 100 complete control), read-out: Plant response rating, Oilseed Rape
[16] = post-emergence, Postemergence, scale 0 to 100, 0 no effect, 100 complete control, read-out: Plant response rating, Johnsongrass
[17] = pre-emergence, Preemergence, scale 0 to 100 (0 no effect, 100 complete control), read-out: Plant response rating, Johnsongrass
[18] = post-emergence, Postemergence, scale 0 to 100, 0 no effect, 100 complete control, read-out: Plant response rating, Galium
[19] = pre-emergence, Preemergence, scale 0 to 100 (0 no effect, 100 complete control), read-out: Plant response rating, Galium
[20] = post-emergence, Postemergence, scale 0 to 100, 0 no effect, 100 complete control, read-out: Plant response rating, Pigweed
[21] = pre-emergence, Preemergence, scale 0 to 100 (0 no effect, 100 complete control), read-out: Plant response rating, Pigweed
[22] = post-emergence, Postemergence, scale 0 to 100 (0 no effect, 100 complete control), read-out: Barnyardgrass plant response rating
[23] = post-emergence, Postemergence, scale 0 to 100, 0 no effect, 100 complete control, read-out: Plant response rating, Barnyardgrass
[24] = pre-emergence, Preemergence, scale 0 to 100 (0 no effect, 100 complete control), read-out: Plant response rating, Barnyardgrass
[25] = post-emergence, Postemergence, scale 0 to 100, 0 no effect, 100 complete control, read-out: Plant response rating, Waterhemp
[26] = pre-emergence, Preemergence, scale 0 to 100 (0 no effect, 100 complete control), read-out: Plant response rating, Waterhemp
[27] = post-emergence, Postemergence, scale 0 to 100 (0 no effect, 100 complete control), read-out: Crabgrass, Large plant response rating
[28] = post-emergence, Postemergence, scale 0 to 100, 0 no effect, 100 complete control, read-out: Plant response rating, Crabgrass, Large
[29] = pre-emergence, Preemergence, scale 0 to 100 (0 no effect, 100 complete control), read-out: Plant response rating, Crabgrass, Large

Fc1cccc(Oc2ncc(Cl)cn2)c1-c1cc(C(F)(F)F)on1 [Compound 168, 5-chloro-2-[2-[5-(trifluoromethyl)-3-isoxazolyl]-3-fluorophenoxy]pyrimidine]
5%: plant injury at 16 g/ha (soybean (Glycine max); pre-emergence, Preemergence, 16 g ai/ha, scale 0 to 100 (0 no effect, 100 complete control), read-out: Plant response rating, Soybean) | pest or weed control at 31 g/ha ([3]; post-emergence, Postemergence, scale 0 to 100 (0 no effect, 100 complete control), read-out: Johnsongrass plant response rating) | pest or weed control at 62 g/ha [3, 16] | pest or weed control at 16 g/ha [6, 22] | pest or weed control at 31 g/ha [6, 22] | pest or weed control at 16 g/ha [8, 27] | pest or weed control at 31 g/ha [8, 27]
40%: plant injury at 62 g/ha (soybean (Glycine max); [9]) | pest or weed control at 125 g/ha [8, 28]
75%: plant injury at 31 g/ha (soybean (Glycine max); post-emergence, Postemergence, scale 0 to 100 (0 no effect, 100 complete control), read-out: Soybean plant response rating) | pest or weed control at 125 g/ha [6, 23] | pest or weed control at 31 g/ha [6, 24]
95%: plant injury at 16 g/ha ([2]; pre-emergence, Preemergence, 16 g ai/ha, scale 0 to 100 (0 no effect, 100 complete control), read-out: Plant response rating, Oilseed Rape) | pest or weed control at 31 g/ha [3, 17] | pest or weed control at 31 g/ha ([4]; post-emergence, Postemergence, scale 0 to 100 (0 no effect, 100 complete control), read-out: Galium plant response rating) | pest or weed control at 62 g/ha [4, 18] | pest or weed control at 62 g/ha [5, 20]
20%: pest or weed control at 125 g/ha [1, 12] | pest or weed control at 125 g/ha [3, 16]
10%: pest or weed control at 16 g/ha [1, 11] | pest or weed control at 62 g/ha [6, 23]
30%: plant injury at 31 g/ha (soybean (Glycine max); [10])
85%: plant injury at 125 g/ha (soybean (Glycine max); pre-emergence, Preemergence, read-out: Plant response rating (scale 0 to 100), Soybean) | pest or weed control at 16 g/ha [1, 13] | pest or weed control at 62 g/ha [3, 17] | pest or weed control at 31 g/ha ([5]; post-emergence, Postemergence, scale 0 to 100 (0 no effect, 100 complete control), read-out: Pigweed plant response rating) | pest or weed control at 16 g/ha ([5]; pre-emergence, Preemergence, 16 g ai/ha, scale 0 to 100 (0 no effect, 100 complete control), read-out: Plant response rating, Pigweed)
55%: plant injury at 62 g/ha (soybean (Glycine max); [10])
15%: pest or weed control at 31 g/ha [1, 11] | pest or weed control at 62 g/ha [1, 12] | pest or weed control at 62 g/ha [8, 28]
98%: pest or weed control at 125 g/ha [5, 20] | pest or weed control at 62 g/ha [7, 25] | pest or weed control at 125 g/ha [7, 25]
35%: pest or weed control at 16 g/ha ([3]; pre-emergence, Preemergence, 16 g ai/ha, scale 0 to 100 (0 no effect, 100 complete control), read-out: Plant response rating, Johnsongrass) | pest or weed control at 16 g/ha [6, 24]
100%: plant injury at 31 g/ha ([2]; post-emergence, Postemergence, scale 0 to 100 (0 no effect, 100 complete control), read-out: Oilseed Rape plant response rating) | plant injury at 62 g/ha [2, 14] | plant injury at 125 g/ha [2, 14] | plant injury at 125 g/ha ([2]; pre-emergence, Preemergence, read-out: Plant response rating (scale 0 to 100), Oilseed Rape) | plant injury at 31 g/ha [2, 15] | plant injury at 62 g/ha [2, 15] | pest or weed control at 125 g/ha ([3]; pre-emergence, Preemergence, read-out: Plant response rating (scale 0 to 100), Johnsongrass) | pest or weed control at 125 g/ha [4, 18] | pest or weed control at 125 g/ha ([4]; pre-emergence, Preemergence, read-out: Plant response rating (scale 0 to 100), Galium) | pest or weed control at 16 g/ha ([4]; pre-emergence, Preemergence, 16 g ai/ha, scale 0 to 100 (0 no effect, 100 complete control), read-out: Plant response rating, Galium) | pest or weed control at 31 g/ha [4, 19] | pest or weed control at 62 g/ha [4, 19] | pest or weed control at 125 g/ha ([5]; pre-emergence, Preemergence, read-out: Plant response rating (scale 0 to 100), Pigweed) | pest or weed control at 31 g/ha [5, 21] | pest or weed control at 62 g/ha [5, 21] | pest or weed control at 125 g/ha ([6]; pre-emergence, Preemergence, read-out: Plant response rating (scale 0 to 100), Barnyardgrass) | pest or weed control at 62 g/ha [6, 24] | pest or weed control at 125 g/ha ([7]; pre-emergence, Preemergence, read-out: Plant response rating (scale 0 to 100), Waterhemp) | pest or weed control at 16 g/ha ([7]; pre-emergence, Preemergence, 16 g ai/ha, scale 0 to 100 (0 no effect, 100 complete control), read-out: Plant response rating, Waterhemp) | pest or weed control at 31 g/ha [7, 26] | pest or weed control at 62 g/ha [7, 26] | pest or weed control at 125 g/ha ([8]; pre-emergence, Preemergence, read-out: Plant response rating (scale 0 to 100), Crabgrass, Large) | pest or weed control at 16 g/ha [8, 29] | pest or weed control at 31 g/ha [8, 29] | pest or weed control at 62 g/ha [8, 29]
90%: plant injury at 125 g/ha (soybean (Glycine max); [9]) | pest or weed control at 125 g/ha ([1]; pre-emergence, Preemergence, read-out: Plant response rating (scale 0 to 100), Blackgrass) | pest or weed control at 31 g/ha [1, 13] | pest or weed control at 62 g/ha [1, 13] | pest or weed control at 31 g/ha ([7]; post-emergence, Postemergence, scale 0 to 100 (0 no effect, 100 complete control), read-out: Waterhemp plant response rating)
